# In US20130089504A1, “Compositions Comprising Enzyme-Cleavable Hydromorphone Prodrug” (priority 2010, published 2013):
# What was measured:
# [1] = In vitro stability of Compound PC-5 to household chemicals and enzyme preparations; type: physicochemical; details: vodka, baking soda, WINDEX, vinegar at RT or 80° C.; GNC Super Digestive, tenderizer, subtilisn at RT; 1 or 24 hr
# Procedure: Samples were incubated as described. Aliquots were removed at 1 hr and 24 hr and stabilized by transferring each to a solution of 50% or 100% phosphoric acid to achieve a final pH of less than or equal to pH 4. The stabilized aliquots were then diluted 4- to 6-fold with water, vortex-mixed and applied to HPLC.
# The percentage of Compound PC-5 remaining after exposure is indicated by the solid black bars and percentage conversion of Compound PC-5 to hydromorphone is indicated by the lightly shaded bars with a black outline.
# trypsin = target: T1, trypsin (Bos taurus, UniProt P00760); experiment: In vitro trypsin conversion of prodrug Compound PC-5 to hydromorphone; type: biochemical; details: no trypsin inhibitor
# T1 construct: gene PRSS1
# T1 sequence (P00760 24-246): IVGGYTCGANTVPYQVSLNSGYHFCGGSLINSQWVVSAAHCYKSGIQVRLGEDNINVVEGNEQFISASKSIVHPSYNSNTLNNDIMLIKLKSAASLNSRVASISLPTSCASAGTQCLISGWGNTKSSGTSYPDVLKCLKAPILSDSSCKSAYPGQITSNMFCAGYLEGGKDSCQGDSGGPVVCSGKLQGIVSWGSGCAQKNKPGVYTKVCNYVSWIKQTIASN
# Procedure: Compound PC-5 was exposed to trypsin as described. […] A 5-minute 37° C. pre-incubation of the reaction mixture without prodrug was conducted and then the prodrug was added to initiate the incubation. The reaction was conducted at 37° C. for 24 hr.
# [2] = In vivo tolerability of Compound PC-5 in rats (IV); details: rat IV
# Procedure: Male naïve Sprague-Dawley rats, 4 per dose, were used in the study. Rats were weighed, and then placed under a heat lamp for 15-20 minutes to dilate the lateral tail veins. Before dosing, rats were placed in Broome restrainers and the drug was introduced into one of the tail veins using a syringe and needle. […] Blood samples were collected 5 minutes post-dose via the saphenous vein. The rats were observed up to 24 hours.
# [3] = Pharmacokinetics of hydromorphone prodrug following IV administration to rats; type: in vivo; details: male, Sprague Dawley; rat IV, PC-5 2 mg/kg (0.29 μmol/kg); plasma; read-out: PC-5 Cmax ± sd
compound,measurement,setting,value
"CCN(CCNC(=O)[C@H](CCCCN)NC(=O)CC(=O)O)C(=O)Oc1ccc2c3c1O[C@H]1C(=O)CCC4[C@@H](C2)N(C)CC[C@@]341 (stereo partly drawn) [Compound PC-5, [2-((S)-2-malonylamino-6-amino-hexanoylamino)-ethyl]-ethyl-carbamic acid hydromorphone ester]",conversion of Compound PC-5 to hydromorphone,[1],less than 10%
same,trypsin-mediated release of hydromorphone,trypsin; in vitro,trypsin can mediate release hydromorphone
same,"Rate of HM formation, Average ± sd","trypsin; 0.761 mM prodrug, 0.02 to 0.0228 mg/ml trypsin, Tris pH 8, 37° C.",106 ± 2 umols/h/umol trypsin
same,half-life at 0.761 mM,"trypsin; 0.761 mM prodrug, 0.02 to 0.0228 mg/ml trypsin, Tris pH 8, 37° C., read-out: Prodrug trypsin half-life, Average ± sd (converted)",2.81 ± 0.23 h
same,dose rats can tolerate,[2],9.7 µmol/kg
same,Clinical observations,"[2]; 33 mg/kg ([…]), observed up to 24 hours",Normal
same,Cmax,[3],3090 ± 360 ng/mL
